“And” between values parts separate entries of the source, which are not always exact repeats. Identical values can stand only once.

The text below walks through data of the C3SDB collision cross section collection.

For series [1] the following is noted: instrument: TW, calibrated with phosphatidylcholines (ESI+) and phosphatidylethanolamines (ESI-), doubly charged cardiolipins calibrated with poly-DL-….
For series [2] the following is noted: instrument: DT, single field.
The conditions of series [3]: instrument: DT, stepped-field.
For series [4] the following is noted: instrument: DT, single field, calibrated with Agilent tune mix (Agilent).

Take `CCCCCC/C=C\CCCCCCCC(=O)OC[C@H](COP(=O)(O)OCCNC(=O)CCCCCCCCCCCCCCC)OC(=O)CCCCCCCCCCCCC` [AcylPE(46:1)]: in series [1] ([M-H]-), the “collision cross section (N2)” value was 310.12 Å².

As to `CCCCCC/C=C\CCCCCCCC(=O)OC[C@H](COP(=O)(O)OCCNC(=O)CCCCCCCCCCCCCCC)OC(=O)CCCCCCCCCCCCCC` [AcylPE(47:1)], the “collision cross section (N2)” value in series [1] ([M+Na]+) was 321.4 Å²; in series [1] ([M-H]-), 313.42 Å².

Take `CCCCCC/C=C\CCCCCCCC(=O)OC[C@H](COP(=O)(O)OCCNC(=O)CCCCCCCCCCCCCCC)OC(=O)CCCCCCCC1CC1CCCCCCCC` (stereo partly specified) [AcylPE(51:2)]: in series [1] ([M-H]-), the “collision cross section (N2)” value came out at 325.65 Å².

As for `CCCCCC/C=C\CCCCCCCC(=O)OC[C@H](COP(=O)(O)OCCNC(=O)CCCCCCCCCCCCCCC)OC(=O)CCCCCCC/C=C\CCCCCCCCCC` [AcylPE(52:2)], the “collision cross section (N2)” value in series [1] ([M-H]-) was found to be 328.83 Å².

`CCCCCC/C=C\CCCCCCCC(=O)OC[C@H](COP(=O)(O)OC[C@@H](O)COC(=O)CCCCCCCCCCCCCCC)OC(=O)CCCCCCCCCCCCC` [AcylPG(46:1)]: in series [1] ([M-H]-), the “collision cross section (N2)” value is recorded as 310.71 Å².

As to `CCCC/C=C\CCCCCCCC(=O)O[C@H](COC(=O)CCCCCCC/C=C\CCCCCC)COP(=O)(O)OC[C@@H](O)COC(=O)CCCCCCCCCCCCCCC` [AcylPG(46:2)], the “collision cross section (N2)” value in series [1] ([M-H]-) is recorded as 312.53 Å².

Turning to `CCCCCC/C=C\CCCCCCCC(=O)OC[C@H](COP(=O)(O)OC[C@@H](O)COC(=O)CCCCCCCCCCCCCCC)OC(=O)CCCCCCC/C=C\CCCCCC` [AcylPG(48:2)], the “collision cross section (N2)” value in series [1] ([M-H]-) was 315.28 Å².

As to `CCCCCC/C=C\CCCCCCCC(=O)OC[C@H](COP(=O)(O)OC[C@@H](O)COC(=O)CCCCCCCCCCCCCCC)OC(=O)CCCCCCCC1CC1CCCCCC` (stereo partly specified) [AcylPG(49:2)], the “collision cross section (N2)” value in series [1] ([M-H]-) amounted to 318.87 Å².

Regarding `CCCCCC/C=C\CCCCCCCC(=O)OC[C@H](COP(=O)(O)OC[C@@H](O)COC(=O)CCCCCCCCCCCCCCC)OC(=O)CCCCCCCC1CC1CCCCCCCC` (stereo partly specified) [AcylPG(51:2)], the “collision cross section (N2)” value in series [1] ([M-H]-) turned out to be 326.79 Å².

Regarding `CCCCCC/C=C\CCCCCCCC(=O)OC[C@H](O)COP(=O)(O)OC[C@@H](COC(=O)CCCCCCC/C=C\CCCCCC)OC(=O)CCCCCCCC1CC1CCCCCCCC` (stereo partly specified) [AcylPG(51:3)], in series [1] ([M-H]-), the “collision cross section (N2)” value stood at 325 Å².

For the compound `CCCCCC/C=C\CCCCCCCC(=O)OC[C@H](COP(=O)(O)OC[C@@H](O)COC(=O)CCCCCCCCCCCCCCC)OC(=O)CCCCCCCC1CC1CCCCCCCCCC` (stereo partly specified) [AcylPG(53:2)], the “collision cross section (N2)” value in series [1] ([M-H]-) is reported as 333.78 Å².

Regarding `CCCCCC/C=C\CCCCCCCC(=O)OC(COC(=O)CCCCCCCCCCCCCCC)COP(=O)(O)OCC(O)COP(=O)(O)OCC(COC(=O)CCCCCCCCCCCCCCC)OC(=O)CCCCCCC/C=C\CCCCCC` (stereo unspecified) [CL(64:2)], the “collision cross section (N2)” value in series [1] ([M+2K]2+) is listed as 422.9 Å²; in series [1] ([M-2H]2-), 397 Å².

In the case of `CCCCCC/C=C\CCCCCCCC(=O)OC(COC(=O)CCCCCCCCCCCCCCC)COP(=O)(O)OCC(O)COP(=O)(O)OCC(COC(=O)CCCCCCCCCCCCCCC)OC(=O)CCCCCCCC1CC1CCCCCC` (stereo unspecified) [CL(65:2)], the “collision cross section (N2)” value in series [1] ([M+2K]2+) came to 425.4 Å²; in series [1] ([M-2H]2-) it was 399.77 Å².

On to `CCCCCC/C=C\CCCCCCCC(=O)OCC(COP(=O)(O)OCC(O)COP(=O)(O)OCC(COC(=O)CCCCCCC/C=C/CCCCCCCC)OC(=O)CCCCCCC/C=C\CCCCCC)OC(=O)CCCCCCC/C=C\CCCCCCCC` (stereo unspecified) [CL(68:4)], for which the “collision cross section (N2)” value in series [1] ([M-2H]2-) is listed as 406.81 Å².

For `CCCCCCCC/C=C\CCCCCCCC(=O)OC(COC(=O)CCCCCCCCCCCCCCC)COP(=O)(O)OCC(O)COP(=O)(O)OCC(COC(=O)CCCCCCCC1CC1CCCCCCCC)OC(=O)CCCCCCCCCCCCCCC` (stereo unspecified) [CL(69:2)], the “collision cross section (N2)” value in series [1] ([M-2H]2-) was determined as 408.93 Å².

For the compound `CCCCCC/C=C\CCCCCCCC(=O)OCC(COP(=O)(O)OCC(O)COP(=O)(O)OCC(COC(=O)CCCCCCCC1CC1CCCCCCCC)OC(=O)CCCCCCC/C=C\CCCCCC)OC(=O)CCCCCCC/C=C\CCCCCCCC` (stereo unspecified) [CL(69:4)], the “collision cross section (N2)” value in series [1] ([M-2H]2-) stood at 409.28 Å².

For `CCCCCCC1CC1CCCCCCCC(=O)O[C@H](CO)COP(=O)([O-])OCC[NH3+]` (stereo partly specified) [LPE(0:0/17:1)], the “collision cross section (N2)” value in series [1] ([M+H]+) stood at 214.85 Å²; in series [1] ([M+Na]+), 219.32 Å²; in series [1] ([M-H]-), 207.62 Å².

For `CCCCCCCCC1CC1CCCCCCCC(=O)O[C@H](CO)COP(=O)([O-])OCC[NH3+]` (stereo partly specified) [LPE(0:0/19:1)], the entries for the “collision cross section (N2)” value in series [1] ([M+H]+), in series [1] ([M+Na]+) and in series [1] ([M-H]-) were 221.32 Å², 226.07 Å² and 214.39 Å², respectively.

`CCCCCC/C=C/CCCCCCCC(=O)OC[C@@H](O)COP(=O)([O-])OCC[NH3+]` [LPE(16:1/0:0)]: the figures for the “collision cross section (N2)” value in series [1] ([M+H]+), in series [1] ([M+Na]+) and in series [1] ([M-H]-) were 206.28 Å², 211.09 Å² and 203.75 Å², respectively.

With `CCCCC/C=C\CCCCCCCC(=O)O[C@H](COC(=O)CCCCCCC/C=C\CCCCCC)COP(=O)([O-])OCC[N+](C)(C)C` [PC(31:2)], the entries for the “collision cross section (N2)” value in series [2] ([M+H]+) and in series [3] ([M+K]+) were 272.28 Å² and 283.6 Å², respectively.

`CCCCC/C=C\C/C=C\CCCCCCCCCC(=O)O[C@H](COC(=O)CCCCCCCCCCCC)COP(=O)([O-])OCC[N+](C)(C)C` [PC(33:2)]: the “collision cross section (N2)” value in series [2] ([M+H]+) is 279.23 Å²; in series [3] ([M+K]+), 291.5 Å²; in series [4] ([M+H]+) it was 279.8 Å².

On to `CCCCCCCCCCCCC=CC[C@@H](O)[C@H](COP(=O)([O-])OCC[N+](C)(C)C)NC(=O)CCCCCCCCCCCCCCCCCCCCC` [SM(40:1)], for which the “collision cross section (N2)” value in series [2] ([M+H]+) was determined as 299.29 Å²; in series [3] ([M+Na]+), 303.9 Å²; in series [4] ([M+HCOO]-), 297.5 Å²; in series [4] ([M+H]+), 300.7 Å²; in series [4] ([M+Na]+) it was 300.5 Å².

`CCCCCCCCCCCCC=CC[C@@H](O)[C@H](COP(=O)([O-])OCC[N+](C)(C)C)NC(=O)CCCCCCCCCCCCCCCCCCCCCCCC` [SM(43:1)]: the “collision cross section (N2)” value in series [2] ([M+H]+) is given as 308.58 Å²; in series [3] ([M+Na]+), 312.5 Å².

Regarding `CCCCC/C=C\C/C=C\C/C=C\CCCCCCCCC(=O)OC[C@@H](COC(=O)CCCCCCCCCCCCC)OC(=O)CCCCCCCCCCCCC` [TG(50:3)], the “collision cross section (N2)” value in series [2] ([M+NH4]+) is 311.73 Å² and 314.12 Å²; in series [2] ([M+Na]+) it was 310.81 Å² and 313.16 Å²; in series [4] ([M+NH4]+) it was 313 Å².

Take `CCCCCCCCC/C=C\CCCCCCCC(=O)OC[C@@H](COC(=O)CCCCCCCCCCCC)OC(=O)CCCCCCC/C=C\CCCCCCCCC` [TG(51:2)]: the “collision cross section (N2)” value in series [2] ([M+Na]+) is 315.77 Å² and 317.68 Å²; in series [4] ([M+NH4]+), 317.2 Å².

In the case of `CCCCC/C=C\CCCCCCCC(=O)OC[C@H](COC(=O)CCCCCCC/C=C\CCCCCCCC)OC(=O)CCCCCCC/C=C\CCCCCCCC` [TG(51:3)], the “collision cross section (N2)” value in series [2] ([M+NH4]+) is 314.4 Å² and 316.33 Å² and 320.05 Å²; in series [2] ([M+Na]+) it was 313.29 Å² and 315.37 Å²; in series [4] ([M+NH4]+) it was 314.6 Å².

For `CCCC/C=C\C/C=C\CCCCCCCC(=O)O[C@@H](COC(=O)CCCCCCC/C=C\C/C=C\CCCCC)COC(=O)CCCCCCCCCCCCCCC` [TG(51:4)], the “collision cross section (N2)” value in series [2] ([M+NH4]+) was 312.43 Å² and 314.2 Å² and 317.35 Å²; in series [2] ([M+Na]+), 313.17 Å²; in series [4] ([M+NH4]+), 312.1 Å².

In the case of `CCCCCCC/C=C\CCCCCCCC(=O)O[C@H](COC(=O)CCCCCCCCCCCCCCCC)COC(=O)CCCCCCCCCCCCCCCCC` [TG(52:1)], the “collision cross section (N2)” value in series [2] ([M+Na]+) is 320.83 Å² and 322.81 Å²; in series [4] ([M+NH4]+), 323.6 Å².

Take `CCCCC/C=C\C/C=C\C/C=C\CCCCC(=O)O[C@H](COC(=O)CCCCCCCCCCC)COC(=O)CCCCCCCCCCC/C=C\C/C=C\CCCCC` [TG(52:5)]: the “collision cross section (N2)” value was 312.33 Å² and 314.31 Å² in series [2] ([M+Na]+); 314.7 Å² in series [4] ([M+NH4]+).

In the case of `CCCCC/C=C\C/C=C\CCCCCCCCCC(=O)O[C@H](COC(=O)CCCCCCCCCCCC)COC(=O)CCCCCCCCCCCCCCCCCCCCC` [TG(55:2)], the “collision cross section (N2)” value was 332.67 Å² and 335.01 Å² in series [2] ([M+NH4]+); 329.2 Å² in series [4] ([M+NH4]+).

Take `CCCCCCC/C=C\CCCCCCCC(=O)OC[C@H](COC(=O)CCCCCCCCC/C=C\CCCCCCCCCC)OC(=O)CCCCCCC/C=C\CCCCCCC` [TG(56:3)]: the “collision cross section (N2)” value in series [2] ([M+Na]+) stood at 331.24 Å²; in series [4] ([M+NH4]+) it was 332.6 Å².

Regarding `CCCCC/C=C\C/C=C\CCCCCCCCCCCC(=O)OC[C@@H](COC(=O)CCCCCCCCCCC)OC(=O)CCCCCCCCCCC/C=C\C/C=C\CCCCC` [TG(56:4)], the “collision cross section (N2)” value in series [2] ([M+NH4]+) is 327.84 Å² and 330.13 Å² and 333.95 Å²; in series [2] ([M+Na]+) it was 329.41 Å²; in series [4] ([M+NH4]+), 330.8 Å².

Consider `CC/C=C\C/C=C\C/C=C\C/C=C\C/C=C\CCCC(=O)O[C@H](COC(=O)CCCCCCCCCCCCCCC)COC(=O)CCCCCCCCCCCCCCCCCCCCC` [TG(58:5)], for which the “collision cross section (N2)” value in series [2] ([M+NH4]+) turned out to be 334.35 Å²; in series [4] ([M+NH4]+), 334.6 Å².

In the case of `CCCC/C=C\C/C=C\CCCCCCCC(=O)OC[C@H](COC(=O)CCCCCCCCCCCCCCCCCCCCC)OC(=O)CCCCCCCCC/C=C\CCCCCCCC` [TG(59:3)], the “collision cross section (N2)” value is 342.22 Å² and 344.48 Å² in series [2] ([M+NH4]+); 337.6 Å² in series [4] ([M+NH4]+).
